Experimental data published in patent US20120301433A1, “BACTERIOPHAGES EXPRESSING AMYLOID PEPTIDES AND USES THEREOF” (priority 2009, published 2012).

Assays:
CsgA [1] = molecular target: T1, CsgA (Escherichia coli, UniProt P28307); format: biochemical; settings: CsgA:inhibitor ratios, FIG. 9
CsgA [2] = molecular target: T1, CsgA; settings: ThT fluorescence, FIG. 7E
CsgA [3] = molecular target: T1, CsgA; settings: 20-residue peptides on array

T1 sequence (P28307 21-151): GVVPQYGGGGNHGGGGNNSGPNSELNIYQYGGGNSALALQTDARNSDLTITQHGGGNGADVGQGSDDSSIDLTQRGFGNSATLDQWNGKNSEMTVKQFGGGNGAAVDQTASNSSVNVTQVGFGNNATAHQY

| Compound | effect of small molecule inhibitors on curli amyloid fiber formation (in words) (CsgA [1]) | nucleation of CsgA fiber assembly by plate-bound peptide (in words) (CsgA [2]) | fluorescence of labelled CsgA bound to peptide spot (in words) (CsgA [3]) |
| --- | --- | --- | --- |
| COc1ccc(Nc2cc3c(cc2Nc2ccc(OC)cc2)C(=O)NC3=O)cc1 [DAPH-12] | secetively inhibits Curli assembly |  |  |
| GTQKTAIVVQRQSQMAIRVT [CsgB130-149] |  | facilitated CsgA amyloid fiber formation with first-order kinetics | strongest signal |
| C[C@@H]1[C@H](O)[C@@H](C)/C=C/C=C/C=C/C=C/C=C/C=C/C=C/[C@H](O[C@@H]2O[C@H](C)[C@@H](O)[C@H](N)[C@@H]2O)C[C@@H]2O[C@](O)(C[C@@H](O)C[C@@H](O)[C@H](O)CC[C@@H](O)C[C@@H](O)CC(=O)O[C@H]1C)C[C@H](O)[C@H]2C(=O)O [AmphB, Amphotericin B] | does not inhibit Curli assembly |  |  |
